Legend:
Format in all cases: biochemical
[1] = biological target: acetylcholinesterase (AChE) (Homo sapiens, UniProt P22303); assay: AChE inhibition by Ellman's method; conditions: for inhibition at 35 µM: read-out: AChE % inhibition
[2] = biological target: butyrylcholinesterase (BuChE) (Homo sapiens, UniProt P06276); assay: BuChE inhibition by Ellman's method; conditions: for inhibition at 35 µM: read-out: BuChE % inhibition
[3] = biological target: AChE (Homo sapiens, UniProt P22303); assay: Kinetic study of AChE inhibition
AChE, sequence (P22303 32-614, species assumed): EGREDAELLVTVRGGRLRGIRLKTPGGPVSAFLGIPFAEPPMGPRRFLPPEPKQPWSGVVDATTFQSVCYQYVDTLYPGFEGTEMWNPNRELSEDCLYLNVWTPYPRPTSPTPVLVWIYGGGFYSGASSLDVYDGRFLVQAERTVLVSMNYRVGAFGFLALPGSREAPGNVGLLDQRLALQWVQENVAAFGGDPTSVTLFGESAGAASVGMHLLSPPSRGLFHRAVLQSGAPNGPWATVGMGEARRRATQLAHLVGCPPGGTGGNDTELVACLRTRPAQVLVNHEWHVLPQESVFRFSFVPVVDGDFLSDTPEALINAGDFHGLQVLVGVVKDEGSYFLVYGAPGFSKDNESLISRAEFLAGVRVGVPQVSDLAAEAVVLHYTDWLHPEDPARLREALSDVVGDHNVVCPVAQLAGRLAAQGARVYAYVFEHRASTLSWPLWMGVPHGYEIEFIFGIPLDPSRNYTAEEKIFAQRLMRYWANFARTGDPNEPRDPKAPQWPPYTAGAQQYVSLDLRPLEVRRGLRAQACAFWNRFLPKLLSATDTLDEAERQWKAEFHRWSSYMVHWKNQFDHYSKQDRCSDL

butyrylcholinesterase (BuChE), sequence (P06276 29-602): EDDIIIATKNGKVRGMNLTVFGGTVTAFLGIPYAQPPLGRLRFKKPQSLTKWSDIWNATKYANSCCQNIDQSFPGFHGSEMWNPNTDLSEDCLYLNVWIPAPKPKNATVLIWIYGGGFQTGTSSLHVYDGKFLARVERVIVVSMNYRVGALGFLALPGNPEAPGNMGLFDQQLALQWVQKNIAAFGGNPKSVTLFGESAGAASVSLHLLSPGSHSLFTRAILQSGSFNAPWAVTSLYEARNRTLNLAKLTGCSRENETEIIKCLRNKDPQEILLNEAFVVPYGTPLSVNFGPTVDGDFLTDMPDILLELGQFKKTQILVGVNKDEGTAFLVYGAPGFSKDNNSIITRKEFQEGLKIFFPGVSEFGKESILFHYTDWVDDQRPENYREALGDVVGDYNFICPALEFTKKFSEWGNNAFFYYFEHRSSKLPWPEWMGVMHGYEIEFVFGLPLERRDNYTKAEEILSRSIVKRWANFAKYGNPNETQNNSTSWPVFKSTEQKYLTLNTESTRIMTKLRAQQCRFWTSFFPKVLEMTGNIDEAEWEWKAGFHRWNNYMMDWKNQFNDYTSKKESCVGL
acetylcholinesterase (AChE), sequence (P22303 32-614, species assumed): as the sequence (P22303 32-614, species assumed) above

| Structure (SMILES) | inhibition at 35 µM [1] | IC50 [2] | IC50 [1] | Ki [3] | type of AChE inhibition ([3]; Lineweaver-Burk plot, substrate ATChI) | inhibition at 35 µM [2] |
| --- | --- | --- | --- | --- | --- | --- |
| O=c1ccc2ccc(OCCCCOc3cccc4cccnc34)cc2o1 [Compound 3a, 7-(4-(Quinolin-8-yloxy)butoxy)-2H-chromen-2-one] | 48% | 28.3 µM |  |  |  |  |
| O=c1ccc2ccc(OCCCCCOc3cccc4cccnc34)cc2o1 [Compound 3b, 7-((5-(Quinolin-8-yloxy)pentyl)oxy)-2H-chromen-2-one] |  | 26.5 µM | 8.8 µM | 1.32 µM | mixed-type inhibition |  |
| Cc1cc(=O)oc2cc(OCCCOc3cccc4cccnc34)ccc12 [Compound 3c, 4-Methyl-7-(3-(quinolin-8-yloxy)propoxy)-2H-chromen-2-one] |  | 32.4 µM | 11.3 µM |  |  |  |
| Cc1cc(=O)oc2cc(OCCCCCOc3cccc4cccnc34)ccc12 [Compound 3d, 4-Methyl-7-((5-(quinolin-8-yloxy)pentyl)oxy)-2H-chromen-2-one] |  |  | 14 µM |  |  | 34.6% |
| CCOC(=O)c1cc2ccc(OCCCOc3cccc4cccnc34)cc2oc1=O [Compound 3e, Ethyl 2-oxo-7-(3-(quinolin-8-yloxy)propoxy)-2H-chromene-3-carboxylate] |  |  | 16.2 µM |  |  | 46% |
| CCOC(=O)c1cc2ccc(OCCCCCOc3cccc4cccnc34)cc2oc1=O [Compound 3f, Ethyl 2-oxo-7-((5-(quinolin-8-yloxy)pentyl)oxy)-2H-chromene-3-carboxylate] |  |  | 8.94 µM |  |  | 29.2% |
| O=C(O)c1cc2ccc(OCCCOc3cccc4cccnc34)cc2oc1=O [Compound 3g, 2-Oxo-7-(3-(quinolin-8-yloxy)propoxy)-2H-chromene-3-carboxylic acid] | 15% |  |  |  |  | 2% |
| O=c1cc(-c2ccccc2)c2ccc(NCCCOc3cccc4cccnc34)cc2o1 [Compound 3h, 4-Phenyl-7-((3-(quinolin-8-yloxy)propyl)amino)-2H-chromen-2-one] |  |  | 30.2 µM |  |  | 37% |
| O=c1ccc2ccc(OCCCCCSc3nc4ccccc4[nH]3)cc2o1 [Compound 3i, 7-((5-((1H-Benzo[d]imidazol-2-yl)thio)pentyl)oxy)-2H-chromen-2-one] |  |  | 11.7 µM |  |  | 38% |
| O=c1ccc2ccc(OCCCCCSc3nc4ccccc4o3)cc2o1 [Compound 3j, 7-((5-(Benzo[d]oxazol-2-ylthio)pentyl)oxy)-2H-chromen-2-one] |  |  | 25.4 µM |  |  | 14% |
| Cc1cc(=O)oc2cc(OCCCSc3nc4ccccc4o3)ccc12 [Compound 3k, 7-(3-(Benzo[d]oxazol-2-ylthio)propoxy)-4-methyl-2H-chromen-2-one] | 44% |  |  |  |  | 11% |
| O=c1cc(-c2ccccc2)c2ccc(NCCCSc3nc4ccccc4o3)cc2o1 [Compound 3l, 7-((3-(Benzo[d]oxazol-2-ylthio)propyl)amino)-4-phenyl-2H-chromen-2-one] |  |  | 13 µM |  |  | 26% |

Source: publication PMC5569448 (Iranian Journal of Basic Medical Sciences, 2017)
